Experimental data from patent US8143227B2, “Azithromycin for treatment of skin disorders” (priority 2008, dated 2012).
In brackets after ≈: the same amount, converted by molar mass.

Legend:
moderate to severe acne = experiment: Efficacy against acne (lesion counts), 40/80/120 mg per day; assay type: in vivo, human
Protocol: The subjects of Example 1 were evaluated for efficacy of each dosage (40 mg, 80 mg, or 120 mg per day) in treating moderate to severe acne following treatment for 6 weeks. Before starting the treatment protocol, the number of facial non-inflammatory lesions (open and closed comedones), inflammatory lesions (papules, pustules, and nodules), and nodules were counted. The numbers of these lesions were counted again at day 21 of treatment and at day 42. The % decrease from Day 0 was calculated as the mean of the differences for each of the parameters (non-inflammatory lesions, inflammatory lesion and nodules) for each individual subject on Day 21 and Day 42. The results, including average lesion counts and efficacy assessment by percent decrease in lesion counts, are shown for the 40 mg, 80 mg, and 120 mg group, respectively, in Tables 4, 5, and 6.

[1] = Azithromycin levels in plasma; conditions: for average azithromycin plasma level at steady state: steady state conditions; for AUC / AUC(0-t) / Cmax: human, plasma, po
Protocol: Plasma levels of azithromycin were determined as follows. Thirty-nine patients were randomized into one of three treatment groups. Each patient received 40 mg (n=13), 80 mg (n=11), or 120 mg (n=15) of oral azithromycin daily. After the initial dose on day 0, a second dose was not administered until 72 hours later, so as to permit measurement of plasma levels based on a single dose and determination of pharmacokinetic parameters. Blood samples from each patient were taken at times equal to 0 (before dosing), 1, 2, 3, 4, 6, 8, 24, 48, and 72 hours after the initial oral dose. Following 72 hours, each patient received azithromycin daily for the remainder of six weeks (42 days). Blood samples were also taken at times equal to 0 hours (before dosing) and 3 hours after dosing on day 21, and at times equal to 0, 1, 2, 3, 4, 6, 8, and 24 hours following the last dose given on day 42. Plasma samples obtained from the blood samples were stored at −20° C. or lower after collection until processing and analysis.
The amount of azithromycin in plasma was quantified using a validated high pressure liquid chromatographic assay with mass spectroscopy detection. Standards and samples were treated, by pipet addition, with 10.0 microliter of 1:1 acetonitrile/water. The standards and samples were then treated, by pipet addition, with 10.0 microliter of an Azaerythromycin A internal standard solution, followed by the addition of 2.0 mL of the mobile phase, which contained a 250:150:100:0.5:0.1 mixture of ethyl acetate, methanol, acetonitrile, formic acid and morpholine. After tightening Teflon caps onto the extraction jars containing the treated standards and samples, the jars were rotated for 2 hours at 1 rps. Next, 0.20 mL aliquots were removed from each jar and transferred to HPLC autosampler vials, and the vials capped and placed in the autosampler tray for LC-MS-MS analysis. A 5 microliter aliquot was injected from each vial into a suitable high pressure liquid chromatograph (HPLC) with suitable mass spectrophotometry-mass spectrometery detection, such as a Sciex API 3000 LC-MS-MS (GenTech Scientific, Inc., Arcade, N.Y.) with heated nebulizer source. The column used was PVA-Sil, 5 micron, 4.0×50 mm cartridge (Waters Corporation, Milford, Mass.). The flow rate was 1 ml/minute. To determine the amount of azithromycin, the peak area of the m/z 750→592 azithromycin product ion was measured against the peak area of the m/z 736→578 azaerythromycin A internal standard product ion.
Plasma azithromycin concentrations were tabulated for each of the subjects for each dose group 40 mg/day, 80 mg/day, and 120 mg/day, respectively. The pharmacokinetic evaluation was based on individual plasma concentration-time data of azithromycin and was performed using model-independent analysis methods within WinNonlin™ version 5.0.1 (Pharsight Corporation, Mountain View, Calif.). […] Cmax, the maximum plasma concentration, was obtained directly from the concentration-time data. AUClast, the area under the plasma concentration-time curve from time 0 to time t (the time of last quantifiable plasma concentration), was calculated using the linear trapezoidal rule from predose to the last quantifiable plasma concentration. AUC24, the area under the plasma concentration-time curve from time 0 to time t=24 hours, was calculated in a manner similar to the calculation for AUClast except from predose to 24 hours.

Staphylococcus aureus = conditions: Neu 1991; relative to P. acnes; cited from earlier work
P. acnes = conditions: concentration that inhibits 90% of growth of the organism; Neu 1991; cited from earlier work
[2] = 40 mg/day for 6 weeks, Day 0 (before treatment)
[3] = 80 mg/day for 6 weeks, Day 0 (before treatment)
[4] = 120 mg/day for 6 weeks, Day 0 (before treatment)

## CC[C@H]1OC(=O)[C@H](C)[C@@H](O[C@H]2C[C@@](C)(OC)[C@@H](O)[C@H](C)O2)[C@H](C)[C@@H](O[C@@H]2O[C@H](C)C[C@H](N(C)C)[C@H]2O)[C@](C)(O)C[C@@H](C)CN(C)[C@H](C)[C@@H](O)[C@]1(C)O [Azithromycin, 9-deoxo-9a-aza-9a-methyl-9a-homoerythromycin A]
Moderate to severe acne; [2]
  Inflammatory lesions (average count): 30.1
  Nodules (average count): 5.2
  Non-inflammatory lesions (average count): 36.5
Moderate to severe acne; 40 mg/day for 6 weeks, Day 21
  Inflammatory lesions % Decrease from Day 0: 51.5%
  Inflammatory lesions (average count): 14.4
  Nodules % Decrease from Day 0: 62.4%
  Nodules (average count): 2.2
  Non-inflammatory lesions % Decrease from Day 0: 30.4%
  Non-inflammatory lesions (average count): 23.9
Moderate to severe acne; 40 mg/day for 6 weeks, Day 42
  Inflammatory lesions % Decrease from Day 0: 54.2%
  Inflammatory lesions (average count): 13.8
  Nodules % Decrease from Day 0: 82.2%
  Nodules (average count): 1.2
  Non-inflammatory lesions % Decrease from Day 0: 38.9%
  Non-inflammatory lesions (average count): 21.5
Moderate to severe acne; [3]
  Inflammatory lesions (average count): 37.0
  Nodules (average count): 5.5
  Non-inflammatory lesions (average count): 38.7
Moderate to severe acne; 80 mg/day for 6 weeks, Day 21
  Inflammatory lesions % Decrease from Day 0: 44.7%
  Inflammatory lesions (average count): 19.8
  Nodules % Decrease from Day 0: 72.8%
  Nodules (average count): 1.5
  Non-inflammatory lesions % Decrease from Day 0: 34.7%
  Non-inflammatory lesions (average count): 24.9
Moderate to severe acne; 80 mg/day for 6 weeks, Day 42
  Inflammatory lesions % Decrease from Day 0: 53.7%
  Inflammatory lesions (average count): 17.0
  Nodules % Decrease from Day 0: 74.2%
  Nodules (average count): 1.3
  Non-inflammatory lesions % Decrease from Day 0: 24.7%
  Non-inflammatory lesions (average count): 29.3
Moderate to severe acne; [4]
  Inflammatory lesions (average count): 31.6
  Nodules (average count): 4.7
  Non-inflammatory lesions (average count): 37.7
Moderate to severe acne; 120 mg/day for 6 weeks, Day 21
  Inflammatory lesions % Decrease from Day 0: 51.9%
  Inflammatory lesions (average count): 15.6
  Nodules % Decrease from Day 0: 78.6%
  Nodules (average count): 1.0
  Non-inflammatory lesions % Decrease from Day 0: 28.1%
  Non-inflammatory lesions (average count): 27.8
Moderate to severe acne; 120 mg/day for 6 weeks, Day 42
  Inflammatory lesions % Decrease from Day 0: 52.9%
  Inflammatory lesions (average count): 14.8
  Nodules % Decrease from Day 0: 73.7%
  Nodules (average count): 1.1
  Non-inflammatory lesions % Decrease from Day 0: 38.9%
  Non-inflammatory lesions (average count): 23.2
Moderate to severe acne; any of 40, 80, or 120 mg per day, at 21 days and at 42 days
  number of inflammatory acne lesions: marked decrease
Moderate to severe acne; any of 40, 80, or 120 mg, at both 21 and 42 days
  number of facial nodules: marked decrease
Moderate to severe acne; daily treatment at each dosage level tested, 40, 80, or 120 mg
  response of non-inflammatory acne lesions: responded favorably
Moderate to severe acne; examination at 21 days after initiation of treatment, daily administration
  resolution of existing nodules: Complete resolution of existing nodules in several subjects
[1]; 40 mg/day group, after administration on day 42
  average maximum azithromycin plasma level: about 16 ng/ml
[1]; 40 mg/day group, after initial dose
  average maximum azithromycin plasma level: about 15 ng/ml
[1]; 40 mg/day group
  average azithromycin plasma level at steady state: about 4 ng/ml
[1]; 80 mg/day group, after administration on day 42
  average maximum azithromycin plasma level: ~54 ng/mL
[1]; 80 mg/day group, after initial dose
  average maximum azithromycin plasma level: ~59 ng/mL
[1]; 80 mg/day group
  average azithromycin plasma level at steady state: ~10 ng/mL
[1]; 120 mg/day group, after administration on day 42
  average maximum azithromycin plasma level: ~68 ng/mL
[1]; 120 mg/day group, after initial dose
  average maximum azithromycin plasma level: ~45 ng/mL
[1]; 120 mg/day group
  average azithromycin plasma level at steady state: ~22 ng/mL
[1]; day 0 and day 42, all dosages tested
  maximum plasma concentration compared with MIC: less than the MIC of azithromycin for P. acnes
[1]; 40 mg
  AUC: 44.7 ng·h/mL
  AUC(0-t): 73.4 ng·h/mL
  Cmax: 7.08 ng/mL
[1]; 40 mg/day
  AUC: 132 ng·h/mL
  Cmax: 13.8 ng/mL
[1]; 80 mg
  AUC: 294 ng·h/mL
  AUC(0-t): 456 ng·h/mL
  Cmax: 60.3 ng/mL
[1]; 80 mg/day
  AUC: 528 ng·h/mL
  Cmax: 53.9 ng/mL
[1]; 120 mg
  AUC: 293 ng·h/mL
  AUC(0-t): 433 ng·h/mL
  Cmax: 57.9 ng/mL
[1]; 120 mg/day
  AUC: 752 ng·h/mL
  Cmax: 92.9 ng/mL
[1]; post administration of initial dose, each treatment group
  time of peak average plasma level: 3 h
Staphylococcus aureus
  MIC against Staphylococcus aureus: higher than that for P. acnes
P. acnes
  MIC against P. acnes: 0.15 µg/mL (≈ 0.2 µM)
